Earlier results on two compounds are cited in patent publication US7413690B1, “Process and apparatus for producing spherical pellets using molten solid matrices” (The University of Mississippi, priority 2003, dated 2008).

Structures are written as SMILES.

`C[C@@H]1C[C@H]2[C@@H]3CCC4=CC(=O)C=C[C@]4(C)[C@@]3(F)[C@@H](O)C[C@]2(C)[C@@]1(O)C(=O)CO` [Dexamethasone]: the “water solubility (in words)” value is “water insoluble”. `Cn1c(=O)c2[nH]cnc2n(C)c1=O` [theophylline]: the “water solubility (in words)” value is reported as “water soluble”.
